Patent US20220119354A1, “DIAMINO-SUBSTITUTED PYRIDINES AND PYRIMIDINES AS HERBICIDES” (FMC Corporation, priority 2019, published 2022)

Key:
Type in all cases: in vivo
[1] = tested on: barnyardgrass (Echinochloa crus-galli); assay: Test A preemergence, barnyardgrass; conditions: 0 to 100 scale; for Barnyardgrass plant response rating: 0 is no effect, 100 is complete control
Procedure, shortened: (§1)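 Greenhouse test; plants at one- to two-leaf stage (2–10 cm) sprayed postemergence with compound in non-phytotoxic solvent/surfactant mix, or soil sprayed preemergence after seeding in loam–sand blend. Injury rated visually versus untreated controls after about 10 d, 0 (no effect) to 100 (complete control).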

kochia (Kochia scoparia) [2] = assay: Test A preemergence, kochia; conditions: 0 to 100 scale; for Kochia plant response rating: 0 is no effect, 100 is complete control
Procedure, shortened: as §1

[3] = tested on: ragweed (common ragweed, Ambrosia elatior); assay: Test A preemergence, ragweed; conditions: 0 to 100 scale; for Ragweed plant response rating: 0 is no effect, 100 is complete control
Procedure, shortened: as §1

[4] = tested on: ryegrass, Italian (Lolium multiflorum); assay: Test A preemergence, Italian ryegrass; conditions: 0 to 100 scale; for Ryegrass, Italian plant response rating: 0 is no effect, 100 is complete control
Procedure, shortened: as §1

[5] = tested on: foxtail, giant (Setaria faberii); assay: Test A preemergence, giant foxtail; conditions: 0 to 100 scale; for Foxtail, Giant plant response rating: 0 is no effect, 100 is complete control
Procedure, shortened: as §1

[6] = tested on: pigweed (Amaranthus retroflexus); assay: Test A preemergence, pigweed; conditions: 0 to 100 scale; for Pigweed plant response rating: 0 is no effect, 100 is complete control
Procedure, shortened: as §1

[7] = tested on: barnyardgrass (Echinochloa crus-galli); assay: Test A postemergence, barnyardgrass; conditions: 0 to 100 scale
Procedure, shortened: as §1

kochia (Kochia scoparia) [8] = assay: Test A postemergence, kochia; conditions: 0 to 100 scale
Procedure, shortened: as §1

[9] = tested on: ragweed (common ragweed, Ambrosia elatior); assay: Test A postemergence, ragweed; conditions: 0 to 100 scale
Procedure, shortened: as §1

[10] = tested on: ryegrass, Italian (Lolium multiflorum); assay: Test A postemergence, Italian ryegrass; conditions: 0 to 100 scale
Procedure, shortened: as §1

[11] = tested on: foxtail, giant (Setaria faberii); assay: Test A postemergence, giant foxtail; conditions: 0 to 100 scale
Procedure, shortened: as §1

[12] = tested on: pigweed (Amaranthus retroflexus); assay: Test A postemergence, pigweed; conditions: 0 to 100 scale
Procedure, shortened: as §1

[13] = tested on: wheat (Triticum aestivum); assay: Test A postemergence, wheat; conditions: 0 to 100 scale
Procedure, shortened: as §1

corn (Zea mays) = assay: Test A postemergence, corn; conditions: 0 to 100 scale
Procedure, shortened: as §1

[14] = tested on: blackgrass (Alopecurus myosuroides); assay: Test A postemergence, blackgrass; conditions: 0 to 100 scale
Procedure, shortened: as §1

[15] = tested on: galium (catchweed bedstraw, Galium aparine); assay: Test A postemergence, galium; conditions: 0 to 100 scale
Procedure, shortened: as §1

rice (Oryza sativa) = assay: Test B flooded paddy test, rice; conditions: Flood, 250 g ai/ha, applied to paddy water, 2-leaf stage, visual evaluation after 13 to 15 d
Procedure, shortened: (§2)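 Each response is a visual 0–100 rating made against untreated controls, where 0 is no effect and 100 is complete control; a dash marks no result. Compound was dosed into 3 cm paddy water over 2-leaf plants, assessed after 13 to 15 d.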

[16] = tested on: sedge, umbrella (small-flower umbrella sedge, Cyperus difformis); assay: Test B flooded paddy test, umbrella sedge; conditions: Flood, 250 g ai/ha, applied to paddy water, 2-leaf stage, visual evaluation after 13 to 15 d
Procedure, shortened: as §2

[17] = tested on: ducksalad (Heteranthera limosa); assay: Test B flooded paddy test, ducksalad; conditions: Flood, 250 g ai/ha, applied to paddy water, 2-leaf stage, visual evaluation after 13 to 15 d
Procedure, shortened: as §2

[18] = tested on: barnyardgrass (Echinochloa crus-galli); assay: Test B flooded paddy test, barnyardgrass; conditions: Flood, 250 g ai/ha, applied to paddy water, 2-leaf stage, visual evaluation after 13 to 15 d
Procedure, shortened: as §2

[19] = 125 g ai/ha, 0 no effect, 100 complete control
[20] = 500 g ai/ha, 0 no effect, 100 complete control

For `CC(Nc1ncc(C(F)(F)F)c(N)n1)c1coc2cccc(F)c12` (racemic) [Compound 96], the “Barnyardgrass plant response rating” value ([1]; 125 g ai/ha) was 0, the “Barnyardgrass plant response rating” value ([1]; 500 g ai/ha) was 90 and the “Kochia plant response rating” value (kochia (Kochia scoparia) [2]; 125 g ai/ha) was 0. The “Kochia plant response rating” value (kochia (Kochia scoparia) [2]; 500 g ai/ha) was 0, the “Ragweed plant response rating” value ([3]; 125 g ai/ha) was 50 and the “Ragweed plant response rating” value ([3]; 500 g ai/ha) was 70. For the same compound, the “Ryegrass, Italian plant response rating” value ([4]; 125 g ai/ha) was 0, the “Ryegrass, Italian plant response rating” value ([4]; 500 g ai/ha) was 50 and the “Foxtail, Giant plant response rating” value ([5]; 125 g ai/ha) was 20. For the same compound, the “Foxtail, Giant plant response rating” value ([5]; 500 g ai/ha) was 80, the “Pigweed plant response rating” value ([6]; 125 g ai/ha) was 70 and the “Pigweed plant response rating” value ([6]; 500 g ai/ha) was 90. The “Plant response rating, Barnyardgrass” value [7, 19] was 30, the “Plant response rating, Barnyardgrass” value [7, 20] was 40 and the “Plant response rating, Kochia” value (kochia (Kochia scoparia) [8]; [19]) was 20. The “Plant response rating, Kochia” value (kochia (Kochia scoparia) [8]; [20]) was 90, the “Plant response rating, Ragweed” value [9, 19] was 20 and the “Plant response rating, Ragweed” value [9, 20] was 80. The “Plant response rating, Ryegrass, Italian” value [10, 19] was 0, the “Plant response rating, Ryegrass, Italian” value [10, 20] was 0 and the “Plant response rating, Foxtail, Giant” value [11, 19] was 0. For the same compound, the “Plant response rating, Foxtail, Giant” value [11, 20] was 60, the “Plant response rating, Pigweed” value [12, 19] was 60 and the “Plant response rating, Pigweed” value [12, 20] was 90. For the same compound, the “Plant response rating, Wheat” value [13, 19] was 0, the “Plant response rating, Wheat” value [13, 20] was 0 and the “Plant response rating, Corn” value (corn (Zea mays); [19]) was 40. For the same compound, the “Plant response rating, Corn” value (corn (Zea mays); [20]) was 60, the “Plant response rating, Blackgrass” value [14, 19] was 0 and the “Plant response rating, Blackgrass” value [14, 20] was 30. For the same compound, the “Plant response rating, Galium” value [15, 19] was 60, the “Plant response rating, Galium” value [15, 20] was 80 and the “Plant response rating, Rice (0 to 100 scale, 0 is no effect, 100 is complete control)” value (rice (Oryza sativa)) was 0. For the same compound, the “Plant response rating, Sedge, Umbrella (0 to 100 scale, 0 is no effect, 100 is complete control)” value [16] was 0, the “Plant response rating, Ducksalad (0 to 100 scale, 0 is no effect, 100 is complete control)” value [17] was 0 and the “Plant response rating, Barnyardgrass (0 to 100 scale, 0 is no effect, 100 is complete control)” value [18] was 0.
In the case of `C[C@@H](Nc1ncc(C(F)(F)F)c(N)n1)c1ccc2ccccc2c1` [Compound 1], the “Plant response rating, Barnyardgrass” value ([1]; 125 g ai/ha) is reported as 0, the “Plant response rating, Barnyardgrass” value ([1]; 500 g ai/ha) is reported as 0 and the “Plant response rating, Kochia” value (kochia (Kochia scoparia) [2]; 125 g ai/ha) is reported as 0. The “Plant response rating, Kochia” value (kochia (Kochia scoparia) [2]; 500 g ai/ha) was 10, the “Plant response rating, Ragweed” value ([3]; 125 g ai/ha) was 0 and the “Plant response rating, Ragweed” value ([3]; 500 g ai/ha) was 0. For the same compound, the “Plant response rating, Ryegrass, Italian” value ([4]; 125 g ai/ha) was 0, the “Plant response rating, Ryegrass, Italian” value ([4]; 500 g ai/ha) was 0 and the “Plant response rating, Foxtail, Giant” value ([5]; 125 g ai/ha) was 0. For the same compound, the “Plant response rating, Foxtail, Giant” value ([5]; 500 g ai/ha) was 30, the “Plant response rating, Pigweed” value ([6]; 125 g ai/ha) was 10 and the “Plant response rating, Pigweed” value ([6]; 500 g ai/ha) was 90. The “Plant response rating, Barnyardgrass” value ([7]; 125 g ai/ha) was 0, the “Plant response rating, Barnyardgrass” value ([7]; 500 g ai/ha) was 0 and the “Plant response rating, Kochia” value (kochia (Kochia scoparia) [8]; 125 g ai/ha) was 0. For the same compound, the “Plant response rating, Kochia” value (kochia (Kochia scoparia) [8]; 500 g ai/ha) was 50, the “Plant response rating, Ragweed” value ([9]; 125 g ai/ha) was 0 and the “Plant response rating, Ragweed” value ([9]; 500 g ai/ha) was 50. The “Plant response rating, Ryegrass, Italian” value ([10]; 125 g ai/ha) was 0, the “Plant response rating, Ryegrass, Italian” value ([10]; 500 g ai/ha) was 20 and the “Plant response rating, Foxtail, Giant” value ([11]; 125 g ai/ha) was 0. The “Plant response rating, Foxtail, Giant” value ([11]; 500 g ai/ha) was 0, the “Plant response rating, Pigweed” value ([12]; 125 g ai/ha) was 80 and the “Plant response rating, Pigweed” value ([12]; 500 g ai/ha) was 100. The “Plant response rating, Wheat” value ([13]; 125 g ai/ha) was 0, the “Plant response rating, Wheat” value ([13]; 500 g ai/ha) was 0 and the “Plant response rating, Corn” value (corn (Zea mays); 125 g ai/ha) was 0. For the same compound, the “Plant response rating, Corn” value (corn (Zea mays); 500 g ai/ha) was 0, the “Plant response rating, Blackgrass” value ([14]; 125 g ai/ha) was 0 and the “Plant response rating, Blackgrass” value ([14]; 500 g ai/ha) was 0. The “Plant response rating, Galium” value ([15]; 125 g ai/ha) was 30, the “Plant response rating, Galium” value ([15]; 500 g ai/ha) was 70 and the “Plant response rating, Rice (0 to 100 scale, 0 is no effect, 100 is complete control)” value (rice (Oryza sativa)) was 0. The “Plant response rating, Sedge, Umbrella (0 to 100 scale, 0 is no effect, 100 is complete control)” value [16] was 0, the “Plant response rating, Ducksalad (0 to 100 scale, 0 is no effect, 100 is complete control)” value [17] was 0 and the “Plant response rating, Barnyardgrass (0 to 100 scale, 0 is no effect, 100 is complete control)” value [18] was 0.
